According to US20060292073A1, “Stereoselective Synthesis of Amino Acid Analogs for Tumor Imaging” (priority 2005, published 2006):

Experiments:
[1] = tested on: DU145 Prostate tumor cells; assay: Amino acid uptake assay in vitro, DU145 tumor cells ± transporter inhibitors; assay type: cell-based, human; details: 30 minutes incubation
Procedure: (§1) The tumor cells were initially grown as monolayers in T-flasks containing Dulbecco's Modified Eagle's Medium (DMEM) under humidified incubator conditions (37° C., 5% CO2/95% air). The growth media were supplemented with 10% fetal calf serum and antibiotics (10,000 units/ml penicillin and 10 mg/ml streptomycin). The growth media were replaced three times per week, and the cells were passaged so the cells would reach confluency in a week's time.
(§2) When the monolayers were confluent, cells were prepared for experimentation in the following manner. Growth media were removed from the T-flask, and the monolayer cells were exposed to 1× trypsin:EDTA for ˜1 minute to weaken the protein attachments between the cells and the flask. The flask was then slapped, causing the cells to release. Supplemented media were added to inhibit the proteolytic action of the trypsin, and the cells were aspirated through an 18 Ga needle until they were monodispersed. A sample of the cells was counted under a microscope using a hemocytometer, and the live/dead fraction estimated through trypan blue staining (>98% viability). The remainder of the cells was placed into a centrifuge tube, centrifuged at 75×g for 5 minutes, and the supernatant was removed. The cells were then resuspended in amino-acid/serum-free DMEM salts.
(§3) In this study, approximately 4.55×10^5 cells were exposed to either [^18F]10 (anti-FACBC) or [^18F]15 (syn-FACBC, 5 μCi) in 3 ml of amino acid free media ±transporter inhibitors (10 mM) for 30 minutes under incubator conditions in 12×75 mm glass vials. Each assay condition was performed in duplicate. After incubation, cells were twice centrifuged (75×g for 5 minutes) and rinsed with ice-cold amino-acid/serum-free DMEM salts to remove residual activity in the supernatant. The vials were placed in a Packard Cobra II Auto-Gamma counter, the raw counts decay corrected, and the activity per cell number determined. The data from these studies (expressed as percent uptake relative to control) were graphed using Excel, with statistical comparisons between the groups analyzed using a 1-way ANOVA (GraphPad Prism software package).
(§4) To test the hypothesis that [^18F]10 and [^18F]15 enter cells predominantly via the L-type amino acid transport system, amino acid uptake assays using cultured 9L gliosarcoma and a variety of human cancer cell lines in the presence and absence of two well-described inhibitors of amino acid transport were performed. […] The A- and L-type amino acid transport systems have been implicated in the in vivo uptake of radiolabeled amino acids used for tumor imaging.

[2] = tested on: SKOV3 Ovarian tumor cells; assay: Amino acid uptake assay in vitro, SKOV3 tumor cells ± transporter inhibitors; assay type: cell-based, human; details: 30 minutes incubation
Procedure: as §1, §2, §3, §4

U87 Glioma tumor cells = assay: Amino acid uptake assay in vitro, U87 tumor cells ± transporter inhibitors; assay type: cell-based, human; details: 30 minutes incubation
Procedure: as §1, §2, §3, §4

A549 Lung tumor cells = assay: Amino acid uptake assay in vitro, A549 tumor cells ± transporter inhibitors; assay type: cell-based, human; details: 30 minutes incubation
Procedure: as §1, §2, §3, §4

[3] = tested on: MB 468 Breast tumor cells; assay: Amino acid uptake assay in vitro, MB 468 tumor cells ± transporter inhibitors; assay type: cell-based, human; details: 30 minutes incubation
Procedure: as §1, §2, §3, §4

[4] = tested on: 9L gliosarcoma cells and a variety of human cancer cell lines; assay: Amino acid uptake assay in vitro as summarised in text; assay type: cell-based, rat; human; details: for intracellular accumulation: absence of inhibitors, after 30 minutes of incubation; for amino acid transport system used for cell entry: based on inhibition of uptake in the presence of BCH
Procedure: as §1, §2, §3, §4

[5] = tested on: 9L gliosarcoma tumor / contralateral normal brain; assay: Rodent biodistribution in rats implanted intracranially with 9L gliosarcoma cells; assay type: in vivo, male Fischer rats; details: for retention of radioactivity in tumor tissue: 60 minutes after intravenous injection, intracranial 9L tumor; for Ratios of tumor uptake to normal brain uptake: at 60 and 120 minutes after intravenous injection, printed as x:1
Procedure: All animal experiments were carried out under humane conditions and were approved by the Institutional Animal Use and Care Committee (IUCAC) at Emory University. Rat 9L gliosarcoma cells were implanted into the brains of male Fischer rats. Briefly, anesthetized rats placed in a stereotactic head holder were injected with a suspension of 4×10^4 rat 9L gliosarcoma cells (1×10^7 per mL) in a location 3 mm right of midline and 1 mm anterior to the bregma at a depth of 5 mm deep to the outer table. The injection was performed over the course of 2 minutes, and the needle was withdrawn over the course of 1 minute to minimize the backflow of tumor cells. The burr hole and scalp incision were closed, and the animals were returned to their original colony after recovering from the procedure. Intracranial tumors developed that produced weight loss, apathy and hunched posture in the tumor-bearing rats, and the animals were used at 17-19 days after implantation. Of the 30 animals implanted with tumor cells, 25 developed tumors visible to the naked eye upon dissection and were used in the study. FIGS. 1-3 show the results of these studies.
The tissue distribution of radioactivity was determined in 16 normal male Fischer 344 rats (200-250 g) after intravenous injection of ˜85 μCi of [^18F]10 or [^18F]15 in 0.3 mL of sterile water. The animals were allowed food and water ad libitum before the experiment. The tail vein injections were performed in awake animals using a RTV-190 rodent restraint device (Braintree Scientific) to avoid mortality accompanying anesthesia in the presence of an intracranial mass. Groups of four rats were killed at 5 minutes, 30 minutes, 60 minutes and 120 minutes after injection of the dose. The animals were dissected, and selected tissues were weighed and counted along with dose standards in a Packard Cobra II Auto-Gamma Counter. The raw counts were decay corrected, and the counts were normalized as the percent of total injected dose per gram of tissue (% ID/g). A comparison of the uptake of activity in tumor tissue, […] at each time point was analyzed using a 1-way ANOVA (GraphPad Prism software package). FIGS. 1-3 below show the results of these studies.

NC1(C(=O)O)CC([18F])C1 (stereo not drawn) [Anti-[^18F]FACBC, trans-(anti-) 1-amino-3-[^18F]fluorocyclobutane-1-carboxylic acid]
Uptake in tumor cells expressed as percent uptake relative to control ([1]; DU145, BCH 10 mM): 4.16%
Uptake in tumor cells expressed as percent uptake relative to control ([1]; DU145, MeAIB 10 mM): 13.90%
Uptake in tumor cells expressed as percent uptake relative to control ([1]; DU145, no inhibitor): 16.06%
Uptake in tumor cells expressed as percent uptake relative to control ([2]; SKOV3, BCH 10 mM): 1.44%
Uptake in tumor cells expressed as percent uptake relative to control ([2]; SKOV3, MeAIB 10 mM): 6.39%
Uptake in tumor cells expressed as percent uptake relative to control ([2]; SKOV3, no inhibitor): 4.68%
Uptake in tumor cells expressed as percent uptake relative to control (U87 Glioma tumor cells; U87, BCH 10 mM): 1.51%
Uptake in tumor cells expressed as percent uptake relative to control (U87 Glioma tumor cells; U87, MeAIB 10 mM): 3.45%
Uptake in tumor cells expressed as percent uptake relative to control (U87 Glioma tumor cells; U87, no inhibitor): 3.41%
Uptake in tumor cells expressed as percent uptake relative to control (A549 Lung tumor cells; A549, BCH 10 mM): 2.69%
Uptake in tumor cells expressed as percent uptake relative to control (A549 Lung tumor cells; A549, MeAIB 10 mM): 11.02%
Uptake in tumor cells expressed as percent uptake relative to control (A549 Lung tumor cells; A549, no inhibitor): 12.17%
Uptake in tumor cells expressed as percent uptake relative to control ([3]; MB 468, BCH 10 mM): 4.43%
Uptake in tumor cells expressed as percent uptake relative to control ([3]; MB 468, MeAIB 10 mM): 14.80%
Uptake in tumor cells expressed as percent uptake relative to control ([3]; MB 468, no inhibitor): 15.51%
intracellular accumulation [4]: 0.43 % of the initial dose per million cells
amino acid transport system used for cell entry [4]: substrates for the L-type amino acid transport system
retention of radioactivity in tumor tissue [5]: high
Ratios of tumor uptake to normal brain uptake [5]: 6.5

N[C@]1(C(=O)O)C[C@H]([18F])C1 [Syn-[^18F]FACBC, syn-[^18F]1-amino-3-fluorocyclobutane-1-carboxylic acid]
Uptake in tumor cells expressed as percent uptake relative to control ([1]; DU145, BCH 10 mM): 9.11%
Uptake in tumor cells expressed as percent uptake relative to control ([1]; DU145, MeAIB 10 mM): 17.16%
Uptake in tumor cells expressed as percent uptake relative to control ([1]; DU145, no inhibitor): 20.27%
Uptake in tumor cells expressed as percent uptake relative to control ([2]; SKOV3, BCH 10 mM): 5.87%
Uptake in tumor cells expressed as percent uptake relative to control ([2]; SKOV3, MeAIB 10 mM): 8.48%
Uptake in tumor cells expressed as percent uptake relative to control ([2]; SKOV3, no inhibitor): 11.67%
Uptake in tumor cells expressed as percent uptake relative to control (U87 Glioma tumor cells; U87, BCH 10 mM): 5.00%
Uptake in tumor cells expressed as percent uptake relative to control (U87 Glioma tumor cells; U87, MeAIB 10 mM): 14.80%
Uptake in tumor cells expressed as percent uptake relative to control (U87 Glioma tumor cells; U87, no inhibitor): 24.77%
Uptake in tumor cells expressed as percent uptake relative to control (A549 Lung tumor cells; A549, BCH 10 mM): 3.85%
Uptake in tumor cells expressed as percent uptake relative to control (A549 Lung tumor cells; A549, MeAIB 10 mM): 9.61%
Uptake in tumor cells expressed as percent uptake relative to control (A549 Lung tumor cells; A549, no inhibitor): 11.91%
Uptake in tumor cells expressed as percent uptake relative to control ([3]; MB 468, BCH 10 mM): 10.93%
Uptake in tumor cells expressed as percent uptake relative to control ([3]; MB 468, MeAIB 10 mM): 28.25%
Uptake in tumor cells expressed as percent uptake relative to control ([3]; MB 468, no inhibitor): 33.53%
intracellular accumulation [4]: 0.50 % of the initial dose per million cells
amino acid transport system used for cell entry [4]: substrates for the L-type amino acid transport system
retention of radioactivity in tumor tissue [5]: high
Ratios of tumor uptake to normal brain uptake [5]: 5.3
